Consider 31 compounds from PMC7986981 (ACS Pharmacology & Translational Science, 2021).

Like-named read-outs stand apart in the source and are kept apart here. Where a SMILES comes first, the peptide text is derived from it. The star is where a group is joined. Cbz = O=C(OCc1ccccc1)*

Data set [1] has as its target SARS-CoV-2 3CL-Pro (Severe acute respiratory syndrome coronavirus 2, UniProt P0DTD1). As to the kind of experiment: biochemical. It is filed as biochemical.
For data set [2] the following is noted: oral drugs, no reference given; cited from earlier work.
In data set [3] the test system is SARS-CoV-2 cytopathic effect in Vero-E6 cells. It is filed as cell-based.
In data set [4] the test system is chymotrypsin. It is filed as biochemical. Particulars: 1 mM DTT.
The subject of data set [5] is SARS-CoV-2. It is filed as cell-based. The following applies: read-out: vRNA reduction / viral replication IC50 in Vero-E6 (qPCR).
Data set [6] deals with SARS-CoV-2 CPE in Caco-2 cells. The following applies: cited from earlier work.
The target of data set [7] is deubiquitinating enzymes. The following applies: read-out: IC50 values against several deubiquitinating enzymes; cited from earlier work.
The target of data set [8] is MERS 3CL-Pro (Middle East respiratory syndrome-related coronavirus, UniProt K9N7C7). It is filed as biochemical. The following applies: read-out: IC50 MERS 3CL-Pro.
MERS 3CL-Pro, sequence (K9N7C7 3248-3553 limits assumed): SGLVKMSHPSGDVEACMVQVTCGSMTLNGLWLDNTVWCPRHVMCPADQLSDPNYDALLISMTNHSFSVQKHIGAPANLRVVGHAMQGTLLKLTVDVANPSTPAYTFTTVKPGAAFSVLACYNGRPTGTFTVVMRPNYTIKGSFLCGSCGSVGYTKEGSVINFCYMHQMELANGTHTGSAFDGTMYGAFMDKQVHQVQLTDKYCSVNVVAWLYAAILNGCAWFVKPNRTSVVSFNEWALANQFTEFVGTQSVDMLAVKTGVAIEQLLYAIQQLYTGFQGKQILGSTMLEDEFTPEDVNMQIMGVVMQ
Data set [9] concerns SARS-CoV 3CL-Pro. Particulars: cited from earlier work.
Setting [10] is: 20 μM compound, result in words.
The mark [11] stands for this setting: read-out: SARS-CoV-2 3CL-Pro IC50.
Where [12] appears, read: read-out: HP 3CL-Pro IC50, hit profiling, without DTT.
Where [13] appears, read: read-out: SARS-CoV-2 3CL-Pro IC50, without DTT, values given in nM.

`Oc1cc2c(cc1O)[C@H]1c3ccccc3CN[C@@H]1CC2` (racemic) [Dihydrexidine] came in with an IC50 in [1] (HP 3CL-Pro IC50 (μM), hit profiling, without DTT) of 1.1 µM.
Regarding `O=c1cc(-c2ccccc2)oc2cc(O)c(O)c(O)c12` [Baicalein], the “effect of DTT (0 and 1 mM) on SARS-CoV-2 3CL-Pro inhibition” value (from here on “effect … on SARS-CoV-2 3CL-Pro inhibition”) in [1] (setting [10]) is listed as “loss of inhibitory capacity”.
As to `NC(CO)C(=O)NNCc1ccc(O)c(O)c1O` (stereo not drawn) [Benserazide hdrochloride], in [2], the “measured acute toxicity in rodents” value is listed as “higher than 5 mg/kg”.
Turning to `CC[C@H](CO)Nc1nc(NCc2ccc(-c3ccccn3)cc2)c2ncn(C(C)C)c2n1` [CR8-(R)], the “anti-CPE effect in Vero-E6 phenotypic assay” value (“anti-CPE effect” for short) in [3] is listed as “no anti-CPE effect”. Further, in [1] (read-out: HP 3CL-Pro IC50), the IC50 came to 0.8 µM.
Take `CCCCCCNC(=O)n1cc(F)c(=O)[nH]c1=O` [Carmofur]: the “Chymotrypsin Inhibition [%] +DTT (10 μM)” value in data set [4] was determined as 14%. For the same compound, the “effect … on SARS-CoV-2 3CL-Pro inhibition” value in data set [1] (setting [10]) is on record as “insensitive to DTT”.
In the case of `[H]/N=C(\N/C(=N/[H])NCCCCCCNC(=N)NC(=N)Nc1ccc(Cl)cc1)Nc1ccc(Cl)cc1` [Chlorhexidine], the “effect … on SARS-CoV-2 3CL-Pro inhibition” value in [1] (setting [10]) is “not an effective inhibitor”.
As for `CCN(CC)C(=S)SSC(=S)N(CC)CC` [Disulfiram], the “effect … on SARS-CoV-2 3CL-Pro inhibition” value in [1] (setting [10]) is listed as “loss of inhibitory capacity”.
Regarding `O=c1c2ccccc2[se]n1-c1ccccc1` [Ebselen], the “effect … on SARS-CoV-2 3CL-Pro inhibition” value in [1] was “loss of inhibitory capacity”.
As for `CC(C)C[C@@H](C=O)NC(=O)[C@H](CC(C)C)NC(=O)[C@H](CC(C)C)NC(=O)OCc1ccccc1` [MG-132] (Cbz-Leu-Leu-Leu-aldehyde), the IC50 in [5] worked out at 100 nM. The “anti-CPE activity against SARS-CoV-2 in Caco-2 cells (words)” value (shortened to “anti-CPE activity”) in data set [6] was “active”.
For `O=c1c2cc(F)ccc2sn1-c1cc(S(=O)(=O)N2CCOCC2)ccc1N1CCOCC1` [ML345], the IC50 in data set [1] (setting [11]) was 0.02 µM.
Same read-out and setting: under `Cc1ccc(C)c(-n2sc3cc(F)ccc3c2=O)c1` [MLS0315771] stands 0.02 µM.
On to `O=c1c(O)c(-c2cc(O)c(O)c(O)c2)oc2cc(O)cc(O)c12` [Myricetin], for which the “anti-CPE effect” value in data set [3] is “not reflected in anti-CPE”.
Turning to `Oc1cc(CNC(=S)/C=C/c2cc(O)c(O)c(Br)c2)cc(O)c1O` [NT-157], the IC50 in data set [1] (read-out: SARS-CoV-2 3CL-Pro IC50 (unit inferred)) was found to be 0.5 µM.
Regarding `Cc1ccc(-n2sc3ccccc3c2=O)cc1` [PBIT], in data set [1] (setting [11]), the IC50 turned out to be 0.02 µM.
On the same count and under the same terms, the value for `O=c1c2ccccc2sn1-c1ccccc1` [PD08290] was 0.02 µM.
In the case of `N#CSc1cc(SC#N)c(N)nc1N` [PR-619], the IC50 in [7] was 2000 to 10000 nM; in data set [8], 2300 nM; in [1] (setting [12]), 0.4 µM. In data set [6], the “anti-CPE activity” value was “inactive”. In addition, the “anti-CPE effect” value in data set [3] is “inactive”.
For the compound `CCC(C)SSc1ncc[nH]1` (stereo not drawn) [PX-12], in data set [8], the IC50 turned out to be 7600 nM.
As for `Cn1sc(=O)n(Cc2ccccc2)c1=O` [TDZD-8], in data set [1] (setting [10]), the “effect … on SARS-CoV-2 3CL-Pro inhibition” value is recorded as “insensitive to DTT”.
As to `Nc1nc2c(ncn2[C@@H]2O[C@H](CO)[C@@H](O)[C@H]2O)c(=S)[nH]1` [Thioguanosine], the “anti-CPE activity” value in data set [6] is “anti-SARS-CoV-2 CPE effects”; in [6] (listed as thioguanosine) it was “active”.
Regarding `O=c1sn(-c2cccc3ccccc23)c(=O)n1Cc1ccccc1` [Tideglusib], in data set [1] (setting [10]), the “effect … on SARS-CoV-2 3CL-Pro inhibition” value is listed as “loss of inhibitory capacity”.
With `COC(=O)CC[C@H](NC(=O)[C@H](CC(=O)OC)NC(=O)OCc1ccccc1)C(=O)N[C@H](C(=O)N[C@@H](CC(=O)OC)C(=O)CF)C(C)C` [Z-DEVD-FMK], in data set [3], the “anti-CPE effect” value is “did not influence CPE”. Besides, the “fold higher potency than previously reported” value in data set [1] (own IC50 versus literature reports (Z-DEVD-FMK: ref 13)) was found to be 600 fold. Moreover, the IC50 in [1] (setting [13]) came out at 0.01 µM.
Turning to `CN1CCc2cccc3c2[C@H]1Cc1ccc(O)c(O)c1-3` [apomorphine], the “measured acute toxicity in rodents” value in data set [2] is given as “higher than 5 mg/kg”.
As to `CC(C)(C)NC(=O)N[C@H](C(=O)N1C[C@H]2[C@@H]([C@H]1C(=O)NC(CC1CCC1)C(=O)C(N)=O)C2(C)C)C(C)(C)C` (stereo partly drawn) [boceprevir], the inhibition at 20 µM in data set [1] (read-out: HC 3CL-Pro Inhibition [%] (20 μM), hit confirmation, triplicate, 20 μM compound) was below 50%.
For the compound `CCCC[C@@H](C=O)NC(=O)[C@H](CC(C)C)NC(=O)OCc1ccccc1` [calpeptin], the “effect … on SARS-CoV-2 3CL-Pro inhibition” value in data set [1] (setting [10]) is “retained its inhibitory effect independent of DTT”. In data set [1] (25 °C, 20 μM, result in words), the “effect of preincubation time (15, 30, 60 min) on inhibition” value is given as “unchanged”.
As to `O=C(O[C@@H]1Cc2c(O)cc(O)cc2O[C@@H]1c1cc(O)c(O)c(O)c1)c1cc(O)c(O)c(O)c1` [epigallocatechin gallate, (-)-Epigallocatechin gallate], the “effect … on SARS-CoV-2 3CL-Pro inhibition” value in data set [1] (setting [10]) is “did not show DTT dependence”.
In the case of `CC(Cc1ccc(O)c(O)c1)C(C)Cc1ccc(O)c(O)c1` (stereo not drawn) [nordihydroguaiaretic acid], in data set [1] (setting [12]), the IC50 is 2.59 µM.
With `CC(=O)[O][Hg][c]1ccccc1` [phenylmercuric acetate], in data set [1] (setting [13]), the IC50 was found to be 0.01 µM.
On to `COCCCOc1ccnc(C[S+]([O-])c2nc3ccccc3[nH]2)c1C` (stereo not drawn) [rabeprazole], for which the “measured acute toxicity in rodents” value in data set [2] is “higher than 5 mg/kg”.
For `Oc1c(I)cc(I)c(O)c1I` [riodoxol], the “measured acute toxicity in rodents” value in [2] is listed as “higher than 5 mg/kg”.
Consider `CCOC(=O)/C=C/[C@H](C[C@@H]1CCNC1=O)NC(=O)[C@@H](CC(=O)[C@@H](NC(=O)c1cc(C)on1)C(C)C)Cc1ccc(F)cc1` [rupintrivir], for which the “activity against SARS-CoV 3CL-Pro” value in data set [9] is listed as “lacks activity”.
On to zinc pyrithione, for which the IC50 in [9] (read-out: SARS-CoV 3CL-Pro IC50) was 800 nM. Moreover, in data set [1], the “effect … on SARS-CoV-2 3CL-Pro inhibition” value is reported as “lost its inhibitory effects in the presence of DTT”; the “effect of preincubation time (15, 30, 60 min) on inhibition” value is listed as “increased with preincubation time”; the “fold more potent after preincubation at 37 °C versus 25 °C” value turned out to be 3 fold.
